Experimental findings from paper PMC9841589, “Identification of 2-Aminoacyl-1,3,4-thiadiazoles as Prostaglandin E2 and Leukotriene Biosynthesis Inhibitors” (ACS Medicinal Chemistry Letters, 2022) are described below.

For one experiment, the target named is T1, mPGES-1 (Homo sapiens, UniProt O14684).
T1 construct: endogenous in cells; host or cells: A549 cells stimulated with IL-1β; microsomal fraction
T1 sequence (O14684 1-152): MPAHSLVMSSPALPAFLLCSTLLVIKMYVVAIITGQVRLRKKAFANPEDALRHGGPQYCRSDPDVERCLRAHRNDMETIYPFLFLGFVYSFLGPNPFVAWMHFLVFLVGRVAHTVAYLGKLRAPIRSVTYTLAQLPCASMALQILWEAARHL
Description: Cell-free mPGES-1 activity assay (PGE2 biosynthesis). It is filed as biochemical. To be noted: 10 μM, percentage of control (100%), read-out: mPGES-1 residual activity at 10 μM (%). An excerpt:
(Table 1). […] From the structural point of view, the biological affinities of compounds 3 and 7 (Figure 2A and C) could be positively affected by the 2-bromobenzoyl substituent able to accommodate in a deep binding pocket on the mPGES-1 surface. This moiety interacts by van der Waals contacts with amino acids of the cytoplasmic part and establishes π-stacking with Phe44ChainC and His53ChainC hydrogen bonds with Ser127, and a halogen bond between the bromine atom and the side chain of Aps49ChainC. Furthermore, the 3-phenylphenol and 2-aminobiphenyl moieties of 3 and 7 (Figure 2A and C), respectively, are able to establish a peculiar π-stacking with Tyr130ChainA and a hydrogen bond with Gln134ChainA. […]
mM glutathione, and 250 mM sucrose) and the protein concentration was defined. Potassium phosphate buffer (0.1 M, pH = 7.4) plus glutathione (2.5 mM) was added to dilute microsomes, which were then seeded in a 96-well plate. […]
preincubated for 15 min on ice. MK886 (10 µM) and MD-52 (1 µM) were used as reference drugs.
The reactions started by adding 20 µM of PGH2, and 1 min later, 100 µl of a solution containing FeCl3 (40 mM), citric acid (80 mM), and 11β-PGE 2 (10 µM) were added for stopping the conversion of PGH2. After the extraction of PGE2 and 11β-PGE 2 (internal stardard) by solid-phase extraction, […]

In experiment [1] the test system is zymosan-induced peritonitis. Description: Zymosan-induced peritonitis in mice. The format is in vivo, mouse. To be noted: 3 mg/kg i.p. How it is done:
Figure 5 Effect of compound 3 in zymosan-induced peritonitis in mice. Mice were randomly divided into different experimental groups: control group (Ctrl), model group (zymosan + vehicle compound 3), zymosan + compound 3 (i.p. injection 30 min after i.p. injection of zymosan) group, and zymosan + dexamethasone (i.p. injection 30 min after i.p. injection of zymosan) group. At (A) 4 and (B) 24 h after injection, peritoneal exudate from each mouse was recovered, and the total cell number was evaluated. Results are expressed as mean ± SD. For statistical analysis see SI.
Figure 6 Analysis of cytokine levels collected in the peritoneal exudate of mice from different experimental groups: (A, B) IL-1β, (C, D) IL-6, (E, F) PGE2, and (G, H) IL-10. Results (normalized to exudate levels) are expressed as mean ± SD. For statistical analysis see SI.
Induction of peritonitis in mice and Enzyme-Linked Immunosorbent Assay (ELISA)
To examine the anti-inflammatory action of compound 3, we next evaluated the biological activity of
compound 3 in a mouse model of zymosan-induced peritonitis, as as previously described. 13,14 26, 27
To this aim, mice were randomly divided into different experimental groups: control group (Ctrl),
model group (zymosan + vehicle compound 3), zymosan + compound 3 (0.1, 1, and 10 mg/kg), and
zymosan + dexamethasone (3 mg/kg) group. Animals received the selected compound or
dexamethasone intraperitoneally (i.p.) 30 min after i.p. injection of zymosan (500 mg/kg)26, 27. Ctrl
and model groups received an equal volume of vehicle (PBS or DMSO/saline 1:3, respectively).
Peritoneal exudates were collected at selected time points (4 and 24 h) by washing the cavity with 2
mL of PBS. Then cell number of lavage fluids was determined by TC10 automated cell counter (Bio-
Rad, Milan, Italy) using disposable slides. The remaining lavage fluids were centrifuged at 3000 rpm
for 20 min at 4 °C, and supernatants were frozen at −80 °C for further ELISA analysis according to
the manufacturer instructions (eBioscience Co., San Diego, CA, USA)10 23 of IL-1β, IL-6, PGE 2 and
IL-10 following the procedure previously described15-17 28-30. Dexamethasone and zymosan A were
purchased from Sigma-Aldrich (Milan, Italy). DMSO was purchased from Merck (Italy). Unless
otherwise stated, all the other reagents were purchased from Carlo Erba (Milan, Italy).
The data and statistical analysis in this study comply with the international recommendations on
experimental design and analysis in preclinical pharmacology18-2031-33. The results obtained were
expressed as the mean ± S.D. or as mean ± S.E.M., as reported in detail in the figure legends. IC 50
values were calculated by nonlinear regression using GraphPad Prism Version 8.0 software (San
Diego, CA) one site binding competition. Statistical evaluation of the data was performed by one-

Bounds are passed on as bounds.

For `Cc1ccoc1C(=O)Nc1nnc(-c2ccc(-c3cccc(O)c3)cc2)s1` [compound 1], the remaining activity at 10 µM on mPGES-1 is greater than 50%. Take `Cc1cc(C(=O)Nc2nnc(-c3ccc(-c4cccc(O)c4)cc3)s2)cc(Cl)n1` [compound 2]: the remaining activity at 10 µM on mPGES-1 was greater than 50%. Still for that read-out and setting: next, `O=C(Nc1nnc(-c2ccc(-c3cccc(O)c3)cc2)s1)c1cc(F)ccc1F` [compound 4]: greater than 50%. Still for that read-out and setting: then `Cc1ccoc1C(=O)Nc1nnc(-c2ccc(-c3ccccc3N)cc2)s1` [compound 5], with greater than 25%. As for `Nc1ccccc1-c1ccc(-c2nnc(NC(=O)c3cc(F)ccc3F)s2)cc1` [compound 8], at mPGES-1, the remaining activity at 10 µM was greater than 50%. As for `C[C@@H]1C[C@H]2[C@@H]3CCC4=CC(=O)C=C[C@]4(C)[C@@]3(F)[C@@H](O)C[C@]2(C)[C@@]1(O)C(=O)CO` [dexamethasone, reference compound], in experiment [1] (4 and 24 h), the “IL-1β level in peritoneal exudate” value is recorded as “more prominent effect”, the “IL-6 level in peritoneal exudate” value was “more prominent effect”, the “IL-10 level in peritoneal exudate” value was “more prominent effect” and the “PGE2 level in peritoneal exudate” value is “more prominent effect”. Besides, in experiment [1] (4 h (P ≤ 0.005) and 24 h (P ≤ 0.01)), the “leukocyte numbers in the peritoneal cavity” value is given as “significantly reduced”.
